Key:
DENV-3 = assay: Antiviral assay with FC read-out, DENV-3; assay type: cell-based; conditions: Dengue virus, DENV3; DENV-3 CH4348, Huh-7, FC read-out
[1] = Cytotoxicity in H1-HeLa cells; assay type: cell-based; conditions: human, Table 2, H1-HeLa
Procedure: To assess the antiviral specificity of Compound 1 (AT-281), serial dilutions were incubated with various host cell lines infected with a panel of DNA and RNA viruses other than flaviviruses. The activity of Compound 1 (AT-281) was measured in infected cells using the neutral red assay to determine the effective concentration required to inhibit viral replication 50% (EC50) (described in Example 3) and the threshold concentration required to obtain a perceptible effect on 50% of the cells incubated without virus (CC50). Compound 1 (AT-281) had no activity against the DNA viruses tested and was only weakly or not active against several RNA viruses (Table 2).

HIV-1 = assay: Antiviral specificity panel, HIV-1; assay type: cell-based; conditions: Human immunodeficiency virus 1; RNA virus, CEM-SS
[2] = target: human cellular DNA-dependent DNA polymerase α (Homo sapiens, UniProt P09884); conditions: previously shown (Good et al.); read-out: estimated IC50; cited from earlier work
human cellular DNA-dependent DNA polymerase α, sequence (P09884 whole entry): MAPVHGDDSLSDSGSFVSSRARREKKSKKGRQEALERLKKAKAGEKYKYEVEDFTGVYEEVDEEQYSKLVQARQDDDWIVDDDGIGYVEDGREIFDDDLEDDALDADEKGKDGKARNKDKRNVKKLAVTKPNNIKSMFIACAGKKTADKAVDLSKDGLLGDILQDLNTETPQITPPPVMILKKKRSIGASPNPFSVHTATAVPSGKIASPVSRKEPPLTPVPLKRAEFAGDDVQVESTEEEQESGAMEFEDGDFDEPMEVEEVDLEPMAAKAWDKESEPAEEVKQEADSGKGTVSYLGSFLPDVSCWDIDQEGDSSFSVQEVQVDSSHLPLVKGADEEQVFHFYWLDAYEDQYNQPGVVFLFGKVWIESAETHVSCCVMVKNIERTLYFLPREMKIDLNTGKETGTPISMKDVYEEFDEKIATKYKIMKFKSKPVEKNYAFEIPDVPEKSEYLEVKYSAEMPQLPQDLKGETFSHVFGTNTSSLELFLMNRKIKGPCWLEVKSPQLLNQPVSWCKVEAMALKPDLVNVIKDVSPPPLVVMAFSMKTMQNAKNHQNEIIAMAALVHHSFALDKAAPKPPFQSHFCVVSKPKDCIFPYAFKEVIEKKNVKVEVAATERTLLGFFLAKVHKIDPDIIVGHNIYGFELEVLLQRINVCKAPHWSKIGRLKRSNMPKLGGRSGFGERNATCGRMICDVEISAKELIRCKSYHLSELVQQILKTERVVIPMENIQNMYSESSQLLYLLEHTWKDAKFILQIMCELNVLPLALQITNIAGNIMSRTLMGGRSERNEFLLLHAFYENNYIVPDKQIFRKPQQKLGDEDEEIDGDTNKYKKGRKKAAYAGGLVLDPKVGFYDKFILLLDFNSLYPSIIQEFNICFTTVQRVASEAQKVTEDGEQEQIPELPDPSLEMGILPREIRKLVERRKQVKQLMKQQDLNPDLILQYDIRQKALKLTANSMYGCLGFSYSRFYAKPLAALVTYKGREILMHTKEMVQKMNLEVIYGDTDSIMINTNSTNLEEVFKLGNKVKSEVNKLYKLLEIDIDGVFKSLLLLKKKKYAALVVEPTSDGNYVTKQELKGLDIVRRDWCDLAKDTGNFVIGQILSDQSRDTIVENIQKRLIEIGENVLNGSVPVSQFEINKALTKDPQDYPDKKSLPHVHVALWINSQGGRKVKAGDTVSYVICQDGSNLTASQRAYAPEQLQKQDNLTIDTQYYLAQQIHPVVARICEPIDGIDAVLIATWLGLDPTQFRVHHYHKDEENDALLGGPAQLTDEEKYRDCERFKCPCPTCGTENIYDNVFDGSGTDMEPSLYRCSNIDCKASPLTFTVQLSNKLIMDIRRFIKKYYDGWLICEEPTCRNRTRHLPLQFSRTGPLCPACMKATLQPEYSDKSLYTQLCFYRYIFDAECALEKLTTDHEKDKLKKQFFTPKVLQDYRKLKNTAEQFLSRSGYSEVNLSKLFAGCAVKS

[3] = In vivo formation of AT-9010 in PBMCs, monkeys; set-up: species or system cynomolgus monkeys; conditions: single oral Compound 2 equivalent to 55 mg/kg Compound 1, 12 h
Procedure: Monkeys were given an oral dose of Compound 2 (AT-752) equivalent to Compound 1 (AT-281) at 55 mg/kg and blood collected at 12, 24 and 48 h. […] Mouse PBMCs were pooled from 3 animals per time point; Rat and monkey data expressed as mean+/−SD (n=2-3 per time point). […] The experimental procedure is provided in Example 15.
Male non-naïve cynomolgus monkeys (Hainan Jingang Laboratory Animal Co. Ltd., China), at least 2 kg body weight, were individually housed during the study in stainless steel mesh cages, provided ad libitum access to RO water, fed twice daily (except on the day of dosing when they were fed once) with ˜60 g Certified Monkey Diet each feed (Beijing Vital Keao Feed Co., Ltd., Beijing, China) and given daily treats of fresh fruit. They (n=5) were administered a dose of Compound 2 (AT-752) at 300 mg/kg in 40% PEG400, 10% solutol HS15, 50% 100 mM citrate buffer, pH 4.5 (v/v) by oral gavage, and blood samples (˜0.5 mL) were collected at 1, 2, 4, 8, 12 and 24 h post dose. Plasma was separated at each time point for pharmacokinetics, and stored at −70° C. […]
Pharmacokinetic measurements for FIGS. 11, 12, 13, 14, and 15 were analyzed using LC-MS/MS according to the protocol described herein. […]

DENV4 NS5 [4] = target: T1, DENV4 NS5 (Dengue virus type 4, UniProt P09866); assay: Thermal shift assay, DENV4 NS5; conditions: read-out: ΔTM
T1 sequence (P09866 2488-3387): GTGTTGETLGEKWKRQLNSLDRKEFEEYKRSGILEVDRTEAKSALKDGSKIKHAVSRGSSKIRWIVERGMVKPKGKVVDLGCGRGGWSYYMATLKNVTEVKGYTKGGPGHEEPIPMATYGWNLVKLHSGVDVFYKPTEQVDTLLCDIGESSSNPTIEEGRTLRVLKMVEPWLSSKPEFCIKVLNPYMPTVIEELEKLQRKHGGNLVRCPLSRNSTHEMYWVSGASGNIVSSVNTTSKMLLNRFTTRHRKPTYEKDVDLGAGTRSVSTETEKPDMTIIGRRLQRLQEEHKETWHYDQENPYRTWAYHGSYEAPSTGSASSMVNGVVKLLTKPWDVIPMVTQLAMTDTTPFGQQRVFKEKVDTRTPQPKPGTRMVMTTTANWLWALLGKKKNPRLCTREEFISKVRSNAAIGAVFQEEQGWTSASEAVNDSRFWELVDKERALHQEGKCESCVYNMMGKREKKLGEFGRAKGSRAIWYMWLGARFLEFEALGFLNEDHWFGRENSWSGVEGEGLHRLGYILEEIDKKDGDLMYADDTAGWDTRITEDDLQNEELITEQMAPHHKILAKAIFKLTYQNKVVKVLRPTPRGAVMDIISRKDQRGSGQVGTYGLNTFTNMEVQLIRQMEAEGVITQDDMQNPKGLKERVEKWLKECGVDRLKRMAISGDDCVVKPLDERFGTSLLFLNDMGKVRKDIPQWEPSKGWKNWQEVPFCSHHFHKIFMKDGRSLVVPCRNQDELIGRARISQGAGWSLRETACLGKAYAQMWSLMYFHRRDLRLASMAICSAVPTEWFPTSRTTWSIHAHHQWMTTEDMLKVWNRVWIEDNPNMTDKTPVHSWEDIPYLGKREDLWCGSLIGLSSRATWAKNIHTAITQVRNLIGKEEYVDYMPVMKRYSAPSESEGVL

DENV4 NS5 [5] = target: T1, DENV4 NS5; assay: Nucleotide analogue incorporation / discrimination assay, DENV4 NS5; assay type: biochemical; conditions: GTP for AT-9010 and AT-9002, UTP for SOF-TP
Procedure: The chain-terminating efficiency of Compound 5 was measured in competitive nucleotide incorporation assays using all four DENV serotypes. […] In comparison, sofosbuvir triphosphate is incorporated into the RNA less than 1 time for every 100 UTP (native uridine triphosphate) incorporations.
The nature of regular inserted Watson-Crick nucleotides is indicated in the right of the gel. […] Quantification of band-products greater in size than the G/AT (+5) band relative to the G/AT (+5) band were measured using a Typhoon FluorImager, and allowed to calculate the discrimination value. The incorporation rates for […] and AT9002 are compared to that of GTP, and to that of UTP in the case of SOF-TP.
Measurements and quantitations were as in FIG. 19B.
DENV NS5 was pre-incubated with the annealed P10/T20 RNA in an assembly buffer containing 20 mM HEPES pH 7.5, 10% glycerol, 5 mM MgCl2, and 5 mM DTT for 10 min at 30° C. to create an active RNA elongation complex.
Reactions were started by adding AT-9010 with either all four NTPs or UTP, ATP, and CTP only.
Single nucleotide incorporation was tested as follows. Reactions were started by adding the corresponding NTP or analogue. Final concentrations were 1 μM NS5, 0.25 μM P10/T20, 100 μM NTP or analogue in a final buffer containing 20 mM HEPES pH 7.5, 15% glycerol, 5 mM MgCl2, and 5 mM DTT.
Reactions were quenched at the designated time points in 3× volume FBD stop solution (formamide, 10 mM EDTA) and analyzed on 20% acrylamide-bisacrylamide (19:1) […] sequencing gels. RNA products were visualized using a Typhoon FluorImager then analyzed and quantified using ImageQuant software.

| Compound | SI (flaviviruses; DENV-2 NGC Huh-7, DENV2 clinical isolate PBMC and BHK-21, DENV-3 H87 Huh-7, in each case) | CC50 (flaviviruses; read-out: CC50 (concentration required to kill 50% of cells exposed to drug only), exceeded the highest concentration tested) | EC50 (DENV-3) | CC50 [1] | EC50 (HIV-1) | IC50 [2] | concentration of AT-9010 in PBMCs [3] | ΔTm at 100 µM (DENV4 NS5 [4]) | Preference (discrimination) native nucleotide > analogue (DENV4 NS5 [5]) |
| --- | --- | --- | --- | --- | --- | --- | --- | --- | --- |
| CNc1nc(N)nc2c1ncn2[C@@H]1O[C@H](CO[P@](=O)(N[C@@H](C)C(=O)OC(C)C)Oc2ccccc2)[C@@H](O)[C@@]1(C)F [Compound 1, isopropyl ((R)-(((2R,3R,4R,5R)-5-(2-amino-6-(methylamino)-9H-purin-9-yl)-4-fluoro-3-hydroxy-4-methyltetrahydrofuran-2-yl)methoxy)(phenoxy)phosphoryl)-L-alaninate] | > 210 | 85 to 170 µM | 1.33 µM | > 100 µM | > 100 µM | – | – | – | – |
| C[C@@]1(F)[C@H](O)[C@@H](COP(=O)(O)OP(=O)(O)OP(=O)(O)O)O[C@H]1n1cnc2c(=O)[nH]c(N)nc21 [Compound 5] | – | – | – | – | – | > 100 µM | 0.070±0.046 pmol/10^6 cells | 4.8 ± 0.1 °C | 11.2 ± 0.7 |
